Laboratory results published in ChEMBL document CHEMBL1146107, “Investigation of mechanism-based thrombin inhibitors: Implications of a highly conserved water molecule for the binding of coumarins within the S pocket” (Bioorg Med Chem Lett, 2006).

These molecules were tested against Prothrombin (Homo sapiens, UniProt P00734) (assay: Inhibition of thrombin).

Row | SMILES | IC50 [µM]
1 | N=C(N)Nc1cccc(OC(=O)c2cc3cc(CCl)ccc3oc2=O)c1 | > 300
2 | N=C(N)NCCOC(=O)c1cc2cc(CCl)ccc2oc1=O | 107
3 | NCCOC(=O)c1cc2cc(CCl)ccc2oc1=O | 284
4 | NCCCOC(=O)c1cc2cc(CCl)ccc2oc1=O | > 300
5 | NC(N)=NCCCOC(=O)c1cc2cc(CCl)ccc2oc1=O | > 300
6 | N=C(N)Nc1ccc(OC(=O)c2cc3cc(CCl)ccc3oc2=O)cc1 | 151
7 | Nc1cccc(OC(=O)c2cc3cc(CCl)ccc3oc2=O)c1 | 1.98
8 | Nc1ccc(OC(=O)c2cc3cc(CCl)ccc3oc2=O)cc1 | 48
9 | O=C(Oc1cccc(Cl)n1)c1cc2cc(CCl)ccc2oc1=O | 0.87
10 | O=C(Oc1cncc(Cl)c1)c1cc2cc(CCl)ccc2oc1=O | > 300
11 | NC1CCC(OC(=O)c2cc3cc(CCl)ccc3oc2=O)CC1 (stereo not drawn) | > 300
12 | O=C(OC1CCNCC1)c1cc2cc(CCl)ccc2oc1=O | > 300
13 | Cc1cccc(OC(=O)c2cc3cc(CCl)ccc3oc2=O)n1 | 1.39
